Structures can show the parent of a compound that is named as a salt.
Test system: LPS-induced IL-1β production in undiluted human whole blood
Assay: human whole blood (HWB) in vitro assay, IL-1β ELISA
Type: cell-based
Conditions: 0.5 μg/mL LPS, 18 hours, 30 min pre-incubation
Description: LPS (lipopolysaccharide) treatment of human whole blood induces IL-1β (Interleukin-1β) production that can be measured by an IL-1β specific ELISA. Human whole blood was pre-incubated with the indicated concentrations of a compound of the present invention in 0.5% DMSO (final concentration) for 30 min at 37° C. Samples were stimulated with 0.5 μg/mL of lipopolysaccharide (LPS, from Sigma) (final concentration) for 18 hours to induce the synthesis and secretion of IL-1β which was measured using an IL-1β ELISA.
A stock solution of 6 mM in DMSO (from Sigma) was prepared by dissolving the compound in DMSO in 449 μL of DMSO. From the 6 mM stock solution, six subsequent half-log serial dilutions in DMSO were performed to give the following concentrations: 1.9 mM, 600, 190, 60, 19, and 6 μM. […] 216 μL DMSO was placed in each of tubes 2-7.
Reconstitution of LPS: in the 10 mg. vial of LPS, 10 mL 1× Phosphate-Buffered Saline (i.e., 1×PBS, from Gibco-BRL) was added, mixed well and transferred to a 50 mL tube. Another 10 mL was added to the LPS vial, followed by rinsing, and this rinse was added to the 50 mL tube and mixed will. The solution was filtered and sterilized, and aliquotted in desired amounts (100 μL aliquot was sufficient for 4 plates). This yielded a 0.5 mg/mL stock which was diluted 1/100 for use in protocol. Just prior to use, the LPS stock was diluted 1/100 (100 μL in 10 mL of RPMI) […]

Row | SMILES | IC50 [nM]
1 | C[C@@H](O)Cn1c(=O)c(Oc2ccc(F)cc2F)cc2cnc(NC3CCOCC3)nc21 [Compound 20, 6-(2,4-Difluoro-phenoxy)-8-((R)-2-hydroxy-propyl)-2-(tetrahydro-pyran-4-ylamino)-8H-pyrido[2,3-d]pyrimidin-7-one] | 1

Test system: not given
Assay: not given
Conditions: not given

Row | SMILES | melting point [°C]
2 | C[C@H](O)Cn1c(=O)c(Oc2ccc(F)cc2F)cc2cnc(N[C@@H](C)CO)nc21 (as salt: hydrochloride) [Compound 16, 6-(2,4-Difluoro-phenoxy)-2-((S)-2-hydroxy-1-methyl-ethylamino)-8-((S)-2-hydroxy-propyl)-8H-pyrido[2,3-d]pyrimidin-7-one] | 175.1 to 179.1
3 | C[C@H](O)Cn1c(=O)c(Oc2ccc(F)cc2F)cc2cnc(N[C@H](C)CO)nc21 (as salt: hydrochloride) [Compound 17, 6-(2,4-Difluoro-phenoxy)-2-((R)-2-hydroxy-1-methyl-ethylamino)-8-((S)-2-hydroxy-propyl)-8H-pyrido[2,3-d]pyrimidin-7-one] | 174.9 to 178.1
4 | C[C@@H](O)Cn1c(=O)c(Oc2ccc(F)cc2F)cc2cnc(NC(C)(C)CO)nc21 (as salt: hydrochloride) [Compound 31, 6-(2,4-Difluoro-phenoxy)-2-(2-hydroxy-1,1-dimethyl-ethylamino)-8-((R)-2-hydroxy-propyl)-8H-pyrido[2,3-d]pyrimidin-7-one] | 182 to 183.9
5 | C[C@H](O)Cn1c(=O)c(Oc2ccc(F)cc2F)cc2cnc(NC(C)(C)CO)nc21 (as salt: hydrochloride) [Compound 36, 6-(2,4-Difluoro-phenoxy)-2-(2-hydroxy-1,1-dimethyl-ethylamino)-8-((S)-2-hydroxy-propyl)-8H-pyrido[2,3-d]pyrimidin-7-one] | 187.4 to 189.9
6 | C[C@@H](O)Cn1c(=O)c(Oc2ccc(F)cc2F)cc2cnc(N[C@@H](C)CO)nc21 (as salt: hydrochloride) [Compound 41, 6-(2,4-Difluoro-phenoxy)-2-((S)-2-hydroxy-1-methyl-ethylamino)-8-((R)-2-hydroxy-propyl)-8H-pyrido[2,3-d]pyrimidin-7-one] | 186 to 189.1
7 | C[C@H](CO)Nc1ncc2cc(Oc3ccc(F)cc3F)c(=O)n(C[C@@H](C)O)c2n1 (as salt: hydrochloride) [Compound 42, 6-(2,4-Difluoro-phenoxy)-2-((R)-2-hydroxy-1-methyl-ethylamino)-8-((R)-2-hydroxy-propyl)-8H-pyrido[2,3-d]pyrimidin-7-one] | 181.5 to 184.4
8 | CC(=O)Cn1c(=O)c(Oc2ccc(F)cc2F)cc2cnc(N[C@@H](C)CO)nc21 (as salt: hydrochloride) [Compound 45, 6-(2,4-Difluoro-phenoxy)-2-((S)-2-hydroxy-1-methyl-ethylamino)-8-(2-oxo-propyl)-8H-pyrido[2,3-d]pyrimidin-7-one] | 207.9 to 214.6
9 | CC(=O)Cn1c(=O)c(Oc2ccc(F)cc2F)cc2cnc(N[C@H](C)CO)nc21 (as salt: hydrochloride) [Compound 46, 6-(2,4-Difluoro-phenoxy)-2-((R)-2-hydroxy-1-methyl-ethylamino)-8-(2-oxo-propyl)-8H-pyrido[2,3-d]pyrimidin-7-one] | 207.8 to 216.4
